Results: ChEMBL document CHEMBL2163213, “Synthesis and bioevaluation of novel 3,4,5-trimethoxybenzylbenzimidazole derivatives that inhibit Helicobacter pylori-induced pathogenesis in human gastric epithelial cells” (Eur J Med Chem, 2012)
Converted amounts (≈) assume the structure as drawn. The source made the active and inactive calls. The rule behind the calls is not given here.

Assays:
[1] = Antimicrobial activity against Helicobacter pylori 26695 ATCC 700392 at 100 ug/ml by disk agar diffusion method; format: functional; conditions: read-out: DIZ
[2] = Antimicrobial activity against Helicobacter pylori 26695 ATCC 700392 at 50 ug/ml by disk agar diffusion method; format: functional; conditions: read-out: DIZ
AGS [3] = assay: Cytotoxicity against human AGS cells assessed as cell viability by MTT assay; format: cell-based
Helicobacter pylori [4] = assay: Antimicrobial activity against metronidazole and clarithromycin-resistant Helicobacter pylori v633 at pH 5 by microdilution method; format: functional
Helicobacter pylori [5] = assay: Antimicrobial activity against metronidazole and clarithromycin-resistant Helicobacter pylori v1254 at pH 7 by microdilution method; format: functional
[6] = Antimicrobial activity against Helicobacter pylori 26695 ATCC 700392 at pH 8 by microdilution method; format: functional
AGS [7] = assay: Inhibition of NFkappaB activation expressed in human AGS cells infected with Helicobacter pylori at 20 ug/ml relative to control; format: cell-based
Helicobacter pylori [8] = assay: Antimicrobial activity against metronidazole and clarithromycin-resistant Helicobacter pylori v633 at pH 7 by microdilution method; format: functional
Helicobacter pylori [9] = assay: Antimicrobial activity against metronidazole and clarithromycin-resistant Helicobacter pylori v1254 at pH 8 by microdilution method; format: functional
[10] = Antimicrobial activity against Helicobacter pylori 26695 ATCC 700392 at pH 7 by microdilution method; format: functional
[11] = Antimicrobial activity against Helicobacter pylori 26695 ATCC 700392 at pH 5 by microdilution method; format: functional
Helicobacter pylori [12] = assay: Antimicrobial activity against metronidazole and clarithromycin-resistant Helicobacter pylori v1254 at pH 5 by microdilution method; format: functional
Helicobacter pylori [13] = assay: Antimicrobial activity against metronidazole and clarithromycin-resistant Helicobacter pylori v633 at pH 8 by microdilution method; format: functional
AGS [14] = assay: Inhibition of Helicobacter pylori 26695 ATCC 700392 cytotoxin A-induced vacuolation in human AGS cells after 24 hrs by neutral red uptake assay; format: functional, cell-based
Helicobacter pylori [15] = assay: Inhibition of Helicobacter pylori adhesion to human AGS cells at 20 ug/ml after 6 hrs by gentamicin assay relative to control; format: functional
[16] = Antimicrobial activity against Helicobacter pylori 26695 ATCC 700392 at 800 ug/ml by disk agar diffusion method; format: functional; conditions: read-out: DIZ
Helicobacter pylori [17] = assay: Inhibition of Helicobacter pylori invasion to human AGS cells at 20 ug/ml after 6 hrs by gentamicin assay relative to control; format: functional
Helicobacter pylori [18] = assay: Inhibition of Helicobacter pylori adhesion to human AGS cells at 10 ug/ml after 6 hrs by gentamicin assay relative to control; format: functional
Helicobacter pylori [19] = assay: Inhibition of Helicobacter pylori invasion to human AGS cells at 10 ug/ml after 6 hrs by gentamicin assay relative to control; format: functional
Helicobacter pylori [20] = assay: Inhibition of Helicobacter pylori 26695 ATCC 700392 CagA-induced pathogenesis in human AGS cells assessed as reduction of hummingbird phenotype of host cells at 20 ug/ml after 6 hrs; format: functional; conditions: ATCC 700392 26695, AGS
AGS [21] = assay: Inhibition of NFkappaB activation expressed in human AGS cells infected with Helicobacter pylori at 10 ug/ml relative to control; format: cell-based
Helicobacter pylori [22] = assay: Antimicrobial activity against Helicobacter pylori infected in human AGS cells assessed as reduction of tyrosine phosphorylated CagA level translocation after 6 hrs by immunoblot analysis; format: functional, organism-based
Helicobacter pylori [23] = assay: Inhibition of Helicobacter pylori adhesion to human AGS cells at 5 ug/ml after 6 hrs by gentamicin assay relative to control; format: functional
Helicobacter pylori [24] = assay: Antimicrobial activity against Helicobacter pylori infected in human AGS cells assessed as inhibition of CagA gene translocation at 20 ug/ml after 6 hrs by immunoblot analysis; format: functional
AGS [25] = assay: Inhibition of NFkappaB activation expressed in human AGS cells infected with Helicobacter pylori assessed as inhibition of IL-8 production at 20 ug/ml relative to control; format: cell-based
Helicobacter pylori [26] = assay: Inhibition of Helicobacter pylori 26695 ATCC 700392 CagA-induced pathogenesis in human AGS cells assessed as reduction of hummingbird phenotype of host cells after 6 hrs; format: functional, cell-based; conditions: ATCC 700392 26695
Helicobacter pylori [27] = assay: Antimicrobial activity against Helicobacter pylori infected in human AGS cells assessed as inhibition of CagA gene translocation after 6 hrs by immunoblot analysis; format: functional, organism-based
Helicobacter pylori [28] = assay: Inhibition of Helicobacter pylori invasion to human AGS cells at 5 ug/ml after 6 hrs by gentamicin assay relative to control; format: functional
Helicobacter pylori [29] = assay: Antimicrobial activity against Helicobacter pylori infected in human AGS cells assessed as reduction of tyrosine phosphorylated CagA level translocation at 20 ug/ml after 6 hrs by immunoblot analysis; format: functional

COc1cc(Cn2c(-c3ccccc3C)nc3cc(C)ccc32)cc(OC)c1OC
zone of inhibition at 100 µg/mL [1]: 14 mm

COc1cc(Cn2c(-c3ccc(Cl)c(Cl)c3)nc3cc(C)ccc32)cc(OC)c1OC
zone of inhibition at 100 µg/mL [1]: 9 mm

COc1cc(Cn2c(-c3ccccc3)nc3cc(C)c(C)cc32)cc(OC)c1OC
zone of inhibition at 100 µg/mL [1]: 16 mm

CC[C@H]1OC(=O)[C@H](C)[C@@H](O[C@H]2C[C@@](C)(OC)[C@@H](O)[C@H](C)O2)[C@H](C)[C@@H](O[C@@H]2O[C@H](C)C[C@H](N(C)C)[C@H]2O)[C@](C)(OC)C[C@@H](C)C(=O)[C@H](C)[C@@H](O)[C@]1(C)O [CLARITHROMYCIN]
zone of inhibition at 50 µg/mL [2]: 21 mm

COc1cc(Cn2c(-c3ccccc3Cl)nc3cc(C)ccc32)cc(OC)c1OC
zone of inhibition at 100 µg/mL [1]: 21 mm
Activity (AGS [3]): Toxic

COc1ccc(-c2nc3cc(C)ccc3n2Cc2cc(OC)c(OC)c(OC)c2)cc1
zone of inhibition at 100 µg/mL [1]: 22 mm
Activity (AGS [3]): Toxic

COc1cc(Cn2c(-c3ccccc3)nc3cc(Cl)ccc32)cc(OC)c1OC
zone of inhibition at 100 µg/mL [1]: 11 mm

COc1cc(Cn2c(-c3ccccc3)nc3cc(F)ccc32)cc(OC)c1OC
zone of inhibition at 100 µg/mL [1]: 17 mm

COc1ccc(-c2nc3ccc(Cl)cc3n2Cc2cc(OC)c(OC)c(OC)c2)cc1
zone of inhibition at 100 µg/mL [1]: 12 mm

COc1ccccc1-c1nc2cc(C)ccc2n1Cc1cc(OC)c(OC)c(OC)c1
zone of inhibition at 100 µg/mL [1]: 21 mm
Activity (AGS [3]): Toxic

COc1ccc(-c2nc3ccc(C)cc3n2Cc2cc(OC)c(OC)c(OC)c2)cc1
zone of inhibition at 100 µg/mL [1]: 15 mm

COc1cc(Cn2c(-c3c(F)cccc3F)nc3cc(C)ccc32)cc(OC)c1OC
zone of inhibition at 100 µg/mL [1]: 24 mm
Activity (AGS [3]): Toxic

COc1cc(Cn2c(-c3ccc(Cl)cc3Cl)nc3cc(C)ccc32)cc(OC)c1OC
zone of inhibition at 100 µg/mL [1]: 11 mm

COc1cc(Cn2c(-c3cc(F)ccc3F)nc3cc(C)ccc32)cc(OC)c1OC
zone of inhibition at 100 µg/mL [1]: 11 mm

COc1ccc2nc(-c3ccccc3)n(Cc3cc(OC)c(OC)c(OC)c3)c2c1
zone of inhibition at 100 µg/mL [1]: 0 mm

COc1ccc(-c2nc3cc(Cl)ccc3n2Cc2cc(OC)c(OC)c(OC)c2)cc1
zone of inhibition at 100 µg/mL [1]: 11 mm

COc1cccc(-c2nc3cc(C)ccc3n2Cc2cc(OC)c(OC)c(OC)c2)c1
zone of inhibition at 100 µg/mL [1]: 0 mm

COc1cc(Cn2c(-c3ccccc3)nc3ccc(C)cc32)cc(OC)c1OC
zone of inhibition at 100 µg/mL [1]: 21 mm
Activity (AGS [3]): Toxic

c1ccc2[nH]cnc2c1 [BENZIMIDAZOLE]
zone of inhibition at 100 µg/mL [1]: 0 mm
MBC (Helicobacter pylori [4]): > 800 mg/L
MBC (Helicobacter pylori [5]): 400 mg/L (≈ 3390 µM)
MBC [6]: > 800 mg/L
inhibition (AGS [7]): Active
MBC (Helicobacter pylori [8]): 400 mg/L (≈ 3390 µM)
MBC (Helicobacter pylori [9]): 400 mg/L (≈ 3390 µM)
MBC [10]: 400 mg/L (≈ 3390 µM)
MBC [11]: > 800 mg/L
MBC (Helicobacter pylori [12]): > 800 mg/L
MBC (Helicobacter pylori [13]): 400 mg/L (≈ 3390 µM)
inhibition (AGS [14]): Active

COc1cc(Cn2c(-c3ccc(F)cc3)nc3cc(C)ccc32)cc(OC)c1OC
zone of inhibition at 100 µg/mL [1]: 17 mm

COc1cc(Cn2c(-c3cccc(Cl)c3Cl)nc3cc(C)ccc32)cc(OC)c1OC
zone of inhibition at 100 µg/mL [1]: 13 mm

COc1cc(Cn2c(-c3ccccc3)nc3cc(C)ccc32)cc(OC)c1OC
zone of inhibition at 100 µg/mL [1]: 22 mm
Activity (AGS [3]): Toxic

Cc1ncc([N+](=O)[O-])n1CCO [METRONIDAZOLE]
inhibition at 20 µg/mL (Helicobacter pylori [15]): 20%
MBC (Helicobacter pylori [4]): 50 mg/L (≈ 292 µM)
MBC (Helicobacter pylori [5]): 100 mg/L (≈ 584 µM)
MBC [6]: 12.5 mg/L (≈ 73 µM)
zone of inhibition at 800 µg/mL [16]: 7 mm
MBC (Helicobacter pylori [8]): 50 mg/L (≈ 292 µM)
MBC (Helicobacter pylori [9]): 100 mg/L (≈ 584 µM)
MBC [10]: 12.5 mg/L (≈ 73 µM)
inhibition at 20 µg/mL (Helicobacter pylori [17]): 20%
MBC [11]: 6.25 mg/L (≈ 36.5 µM)
MBC (Helicobacter pylori [12]): 100 mg/L (≈ 584 µM)
MBC (Helicobacter pylori [13]): 50 mg/L (≈ 292 µM)

COc1cc(Cn2c(-c3ccccc3F)nc3cc(C)ccc32)cc(OC)c1OC
zone of inhibition at 100 µg/mL [1]: 24 mm
inhibition at 10 µg/mL (Helicobacter pylori [18]): 31%
inhibition at 10 µg/mL (Helicobacter pylori [19]): 28%
inhibition at 20 µg/mL (Helicobacter pylori [15]): 58%
MBC (Helicobacter pylori [4]): 12.5 mg/L (≈ 30.8 µM)
inhibition at 20 µg/mL (Helicobacter pylori [20]): 98%
MBC (Helicobacter pylori [5]): 12.5 mg/L (≈ 30.8 µM)
MBC [6]: 25 mg/L (≈ 61.5 µM)
inhibition (AGS [7]): 42%
inhibition (AGS [21]): 14%
MBC (Helicobacter pylori [8]): 12.5 mg/L (≈ 30.8 µM)
inhibition (Helicobacter pylori [22]): Dose-dependent effect
inhibition at 5 µg/mL (Helicobacter pylori [23]): 6%
inhibition at 20 µg/mL (Helicobacter pylori [24]): 55%
inhibition (AGS [25]): 85%
inhibition (Helicobacter pylori [26]): Dose-dependent effect
inhibition (Helicobacter pylori [27]): Dose-dependent effect
MBC (Helicobacter pylori [9]): 12.5 mg/L (≈ 30.8 µM)
MBC [10]: 25 mg/L (≈ 61.5 µM)
Activity (AGS [3]): Non-toxic
inhibition at 20 µg/mL (Helicobacter pylori [17]): 52%
inhibition at 5 µg/mL (Helicobacter pylori [28]): 7%
MBC [11]: 25 mg/L (≈ 61.5 µM)
inhibition at 20 µg/mL (Helicobacter pylori [29]): 55%
MBC (Helicobacter pylori [12]): 12.5 mg/L (≈ 30.8 µM)
MBC (Helicobacter pylori [13]): 12.5 mg/L (≈ 30.8 µM)
inhibition (AGS [14]): Dose-dependent effect

COc1cc(Cn2c(-c3cccc(F)c3)nc3cc(C)ccc32)cc(OC)c1OC
zone of inhibition at 100 µg/mL [1]: 0 mm

COc1cc(Cn2c(-c3ccc4ccccc4c3)nc3cc(C)ccc32)cc(OC)c1OC
zone of inhibition at 100 µg/mL [1]: 0 mm

CC1(C)S[C@@H]2[C@H](NC(=O)[C@H](N)c3ccc(O)cc3)C(=O)N2[C@H]1C(=O)O [AMOXICILLIN]
zone of inhibition at 50 µg/mL [2]: 14 mm

COc1cc(Cn2c(-c3cccc4ccccc34)nc3cc(C)ccc32)cc(OC)c1OC
zone of inhibition at 100 µg/mL [1]: 12 mm

COc1cc(Cn2c(-c3ccc(C#N)cc3)nc3cc(C)ccc32)cc(OC)c1OC
zone of inhibition at 100 µg/mL [1]: 12 mm

COc1cc(Cn2c(-c3cccc(C)c3)nc3cc(C)ccc32)cc(OC)c1OC
zone of inhibition at 100 µg/mL [1]: 19 mm

COc1cc(Cn2c(-c3ccccc3)nc3ccc(Cl)cc32)cc(OC)c1OC
zone of inhibition at 100 µg/mL [1]: 14 mm
